The source of these data is US20260062422A1 (Halda Therapeutics OpCo, Inc., priority 2022, published 2026).

The test system of one assay is T47D cells. Put plainly: Cellular growth inhibition assay for T47D cells, CellTiter-Glo. The format is cell-based, human. As to conditions: Homo sapiens, T47D, 72 h, 72 hours treatment, CellTiter-Glo 2.0 cell viability. The essentials:
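Luminescence from CellTiter-Glo 2.0 after 72 h of compound exposure gives the viability signal. Cells grew in insulin-supplemented (0.2 units/mL) DMEM with 10% FBS and were treated one day after seeding at 0.5% DMSO. GI50 values come from four-parameter nonlinear regression.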
(ATP-based viability assays read luminescence as a measure of living cells.)

The next assay concerns the target T1, androgen receptor (Homo sapiens, UniProt P10275).
T1 sequence (P10275 1-920 T878A): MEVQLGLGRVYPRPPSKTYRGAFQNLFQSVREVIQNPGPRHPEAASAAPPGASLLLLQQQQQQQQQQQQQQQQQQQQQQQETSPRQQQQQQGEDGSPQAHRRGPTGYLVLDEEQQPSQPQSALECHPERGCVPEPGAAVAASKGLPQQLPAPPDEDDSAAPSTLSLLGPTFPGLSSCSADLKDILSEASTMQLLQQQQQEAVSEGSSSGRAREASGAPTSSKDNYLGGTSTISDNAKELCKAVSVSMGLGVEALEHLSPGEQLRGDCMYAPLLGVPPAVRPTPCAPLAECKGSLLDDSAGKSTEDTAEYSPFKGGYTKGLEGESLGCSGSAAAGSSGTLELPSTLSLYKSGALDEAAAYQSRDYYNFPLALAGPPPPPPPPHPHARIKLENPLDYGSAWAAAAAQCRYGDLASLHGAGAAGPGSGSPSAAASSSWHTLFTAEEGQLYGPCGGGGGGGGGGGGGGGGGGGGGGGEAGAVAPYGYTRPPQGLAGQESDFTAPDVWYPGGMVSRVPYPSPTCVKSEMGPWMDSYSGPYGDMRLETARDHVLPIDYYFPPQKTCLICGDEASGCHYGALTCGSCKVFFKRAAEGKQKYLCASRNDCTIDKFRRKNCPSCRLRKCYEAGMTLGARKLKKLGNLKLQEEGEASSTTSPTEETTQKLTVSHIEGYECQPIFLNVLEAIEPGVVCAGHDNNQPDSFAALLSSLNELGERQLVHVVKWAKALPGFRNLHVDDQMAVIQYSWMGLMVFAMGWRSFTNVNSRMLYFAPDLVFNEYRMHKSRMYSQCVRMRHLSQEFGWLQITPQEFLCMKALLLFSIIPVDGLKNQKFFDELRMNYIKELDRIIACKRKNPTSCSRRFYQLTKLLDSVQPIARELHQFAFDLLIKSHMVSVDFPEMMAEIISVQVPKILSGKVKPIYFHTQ
Nature of the assay: Assay for binding affinity to androgen receptor ([3H]methyltrienolone radioligand, cell cytosol). The following applies: 1 nM [3H]methyltrienolone, 24 hours at 4° C., Table 5. As for the experimental part:
Fractions of cell cytosol ([…] cell/point) were incubated for 24 hours at 4° C. with 1 nM [^3H]methyltrienolone in the absence or presence of the test compound in a buffer containing 25 mM Hepes-Tris (pH 7.4), 1 mM EDTA, 10 mM Na2MoO4, 2 mM DTT, 5 μM triamcinolone acetonide, and 10% glycerol. Nonspecific binding was determined in the presence of 1 μM testosterone. Following incubation, the samples were filtered rapidly under vacuum through glass fiber filters (GF/B, Packard) presoaked with 0.3% PEI and rinsed several times with ice-cold 50 mM Tris-HCl using a 96-sample cell harvester (Unifilter, Packard). The filters were dried then counted for radioactivity in a scintillation counter (Topcount, Packard) using a scintillation cocktail (Microscint 0, Packard). The results are expressed as a percent inhibition of the control radioligand specific binding. The standard reference compound is testosterone, which is tested in each experiment at several concentrations to obtain a competition curve from which its IC50 is calculated.

The target of the next assay is T2, progesterone receptor (Homo sapiens, UniProt P06401).
T2 construct: host or cells: T47D cells (cytosolic fraction)
T2 sequence (P06401 1-933): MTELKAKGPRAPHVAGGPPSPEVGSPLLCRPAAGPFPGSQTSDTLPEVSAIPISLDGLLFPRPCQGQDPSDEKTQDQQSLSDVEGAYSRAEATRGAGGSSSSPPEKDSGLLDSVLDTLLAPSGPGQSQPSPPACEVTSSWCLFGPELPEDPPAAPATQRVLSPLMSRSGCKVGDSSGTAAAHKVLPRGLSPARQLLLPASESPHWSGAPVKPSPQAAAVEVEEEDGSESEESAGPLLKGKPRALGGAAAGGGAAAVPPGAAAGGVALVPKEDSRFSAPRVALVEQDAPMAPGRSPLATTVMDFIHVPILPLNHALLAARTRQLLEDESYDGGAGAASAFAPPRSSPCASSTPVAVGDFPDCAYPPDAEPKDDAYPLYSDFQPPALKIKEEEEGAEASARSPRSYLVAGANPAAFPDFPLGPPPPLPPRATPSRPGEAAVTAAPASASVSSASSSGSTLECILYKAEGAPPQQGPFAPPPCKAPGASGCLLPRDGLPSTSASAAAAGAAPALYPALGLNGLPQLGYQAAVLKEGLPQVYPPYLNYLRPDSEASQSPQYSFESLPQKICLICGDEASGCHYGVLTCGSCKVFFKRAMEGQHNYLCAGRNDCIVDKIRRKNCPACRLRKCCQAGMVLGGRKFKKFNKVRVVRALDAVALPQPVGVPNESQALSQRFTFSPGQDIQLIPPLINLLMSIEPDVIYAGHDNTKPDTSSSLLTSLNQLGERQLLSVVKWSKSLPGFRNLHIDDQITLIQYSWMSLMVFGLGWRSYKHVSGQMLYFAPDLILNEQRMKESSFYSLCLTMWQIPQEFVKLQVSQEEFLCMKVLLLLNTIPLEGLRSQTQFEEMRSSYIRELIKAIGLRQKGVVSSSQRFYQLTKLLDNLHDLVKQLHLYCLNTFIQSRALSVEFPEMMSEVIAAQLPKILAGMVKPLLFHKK
Put plainly: PR Human Progesterone NHR Binding (Agonist Radioligand) Assay, T47D cytosol. The following applies: T47D cytosolic fractions, 0.5 nM [3H]progesterone, 1 hour at 4° C., Table 16. As for the experimental part: Compounds were tested using the PR Human Progesterone NHR Binding (Agonist Radioligand) Assay, Cerep at Eurofins Discovery using a modified version of the protocol from Sarup et al. (Cancer Res 1988; 48:5071-5078). Briefly, cytosolic fractions of T47D cells were incubated with 0.5 nM [^3H]progesterone for 1 hour at 4° C. in the absence or presence of the test compound. Nonspecific binding was determined in the presence of 1 μM promegestone. Reactions were subjected to scintillation counting. Results are expressed as a percent inhibition of the control radioligand specific binding.

For assay [1], the system named is T-Rex 293 cell line SC3 cells having increased expression of androgen receptor protein due to exposure to doxycycline. Nature of the assay: Cellular growth inhibition, T-Rex 293 SC3 cells with doxycycline (androgen receptor induced), CellTiter-Glo. The format is cell-based. As to conditions: 72 h, T-Rex 293 SC3 cells with 10 ng/mL doxycycline (increased androgen receptor expression). In outline:
(§1)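 GI50 came from a four-parameter fit of CellTiter-Glo 2.0 luminescence after 72 h compound exposure (0.5% DMSO, 37 °C), dosing 24 h post-seeding. SC3 clone cells (2500/well), transfected with wild-type androgen receptor, grew in charcoal-stripped serum medium lacking phenol red, induced with 10 ng/mL doxycycline or left uninduced.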

In assay [2] the test system is T-Rex 293 cell line SC3 cells lacking increased expression of androgen receptor protein. Nature of the assay: Cellular growth inhibition, T-Rex 293 SC3 cells without doxycycline, CellTiter-Glo. The following applies: 72 h, T-Rex 293 SC3 cells not exposed to doxycycline, CellTiter-Glo 2.0. The format is cell-based. In outline:
as §1

In another assay the target is T3, BRD4-BD1 (Homo sapiens, UniProt O60885).
T3 construct: made in house; host or cells: T7 phage grown in an E. coli host derived from BL21
Put plainly: bromoKdELECT assay for binding affinity to BRD4-BD1. The following applies: Table 6. As for the experimental part:
(§2) Compounds were tested using a bromoKdELECT assay. T7 phage strains displaying bromodomains were grown in parallel in 24-well blocks in an E. coli host derived from the BL21 strain. E. coli were grown to log-phase and infected with T7 phage from a frozen stock (multiplicity of infection=0.4) and incubated with shaking at 32° C. until lysis (90-150 minutes). The lysates were centrifuged (5,000×g) and filtered (0.2 μm) to remove cell debris. Streptavidin-coated magnetic beads were treated with biotinylated small molecule or acetylated peptide ligands for 30 minutes at room temperature to generate affinity resins for bromodomain assays. The liganded beads were blocked with excess biotin and washed with blocking buffer (SeaBlock (Pierce), 1% BSA, 0.05% Tween 20, 1 mM DTT) to remove unbound ligand and to reduce nonspecific phage binding. Binding reactions were assembled by combining bromodomains, liganded affinity beads, and test compounds in 1× binding buffer (17% SeaBlock, 0.33×PBS, 0.04% Tween 20, 0.02% BSA, 0.004% Sodium azide, 7.4 mM DTT). Test compounds were prepared as 1000× stocks in 100% DMSO. Kds were determined using an 11-point 3-fold compound dilution series with one DMSO control point. All compounds for Kd measurements are distributed by acoustic transfer (non-contact dispensing) in 100% DMSO. The compounds were then diluted directly into the assays such that the final concentration of DMSO was 0.09%. All reactions performed in polypropylene 384-well plates. Each was a final volume of 0.02 ml. The assay plates were incubated at room temperature with shaking for 1 hour and the affinity beads were washed with wash buffer (1×PBS, 0.05% Tween 20). The beads were then resuspended in elution buffer (1×PBS, 0.05% Tween 20, 2 M non-biotinylated affinity ligand) and incubated at room temperature with shaking for 30 minutes. The bromodomain concentration in the eluates was measured by qPCR.

For another assay, the target named is T4, BRD4-BD2 (Homo sapiens, UniProt O60885).
T4 construct: made in house; host or cells: T7 phage grown in an E. coli host derived from BL21
Put plainly: bromoKdELECT assay for binding affinity to BRD4-BD2. The following applies: Table 7. As for the experimental part:
as §2, with “2 μM” for “2 M”

The next assay concerns VCaP cells. Nature of the assay: Cellular growth inhibition assay for VCaP cells, CellTiter-Glo. The format is cell-based, human. The following applies: Homo sapiens, VCaP, 72 h, 72 hours treatment, CellTiter-Glo 2.0. In outline:
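GI50 values come from four-parameter curve fits of luminescence data normalized to a zero baseline. Compound, in medium with 0.5% DMSO, was added one day after plating and left for 72 h before CellTiter-Glo 2.0 addition.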

The structures appear in SMILES notation. Where only a bound is given, the exact number is not on record here.

On to `Cc1sc2c(c1C)C(c1ccc(N3CC(CC4CN(c5cnc(C(=O)N[C@H]6C(C)(C)[C@H](Oc7ccc(C#N)c(Cl)c7)C6(C)C)cn5)C4)C3)cc1)=N[C@@H](C)c1nnc(C)n1-2` [Compound I-503], for which, in the assay on T47D cells, the GI50 is < 500 nM. The Kd on androgen receptor was in the range of 50 to 500 nM. Moreover, the Ki on progesterone receptor is < 50 nM.

`Cc1sc2c(c1C)C(c1ccc(Cl)cc1)=N[C@@H](CC(=O)NCCOCCOCCOC1CCCN(c3ncc(C(=O)N[C@H]4C(C)(C)[C@H](Oc5ccc(C#N)c(Cl)c5)C4(C)C)cn3)C1)c1nnc(C)n1-2` (stereo partly drawn) [Compound I-15]: the values for the GI50 in assay [1] and in assay [2] were < 500 nM and 1500 to 3000 nM, respectively. Further, the Kd at androgen receptor was < 50 nM; at BRD4-BD1 it was 500 to 2500 nM.

As for `Cc1sc2c(c1C)C(c1ccc(Cl)cc1)=N[C@@H](CC(=O)NCCOCCOCCOC1CCN(c3ncc(C(=O)N[C@H]4C(C)(C)[C@H](Oc5ccc(C#N)c(Cl)c5)C4(C)C)cn3)C1)c1nnc(C)n1-2` (stereo partly drawn) [Compound I-16], the GI50 is < 500 nM in assay [1] and 1500 to 3000 nM in assay [2]. Also, the Kd on BRD4-BD2 is < 50 nM; on BRD4-BD1 it was 500 to 2500 nM.

In the case of `Cc1sc2c(c1C)C(c1ccc(C(=O)N3CCC(Cc4ncc(C(=O)N[C@H]5C(C)(C)[C@H](Oc6ccc(C#N)c(Cl)c6)C5(C)C)cn4)CC3)cc1)=N[C@@H](Cc1ncco1)c1nnc(C)n1-2` [Compound I-288], the GI50 (in assay [1]; with T47D cells; in assay [2]; in the assay on VCaP cells) was > 3000 nM in each case.

The term GI50 denotes the concentration at which growth is held to half of that of the control. The term Kd denotes a measure of binding affinity in units of concentration. Lower therefore signals a tighter complex. By Ki is commonly meant the dissociation constant of the complex between target and ligand, obtained from inhibition or displacement. A low value points to tighter binding.
